Data: patent US6066672A, “Amino compounds and angiotensin IV receptor agonists” (Taisho Pharmaceutical Co., Ltd., priority 1996, dated 2000)
Where a name gives a salt, the structure may show the parent alone.

Target: T1, angiotensin IV receptor (Cavia porcellus, UniProt H0VNM7)
T1 construct: The Hartley guinea pig hippocampus was homogenized in a 50 mM Tris hydrochloride buffer solution; from tissue; host or cells: Hartley guinea pig hippocampus, crude membrane (48,000 x g precipitate)
T1 sequence (H0VNM7 1-1025): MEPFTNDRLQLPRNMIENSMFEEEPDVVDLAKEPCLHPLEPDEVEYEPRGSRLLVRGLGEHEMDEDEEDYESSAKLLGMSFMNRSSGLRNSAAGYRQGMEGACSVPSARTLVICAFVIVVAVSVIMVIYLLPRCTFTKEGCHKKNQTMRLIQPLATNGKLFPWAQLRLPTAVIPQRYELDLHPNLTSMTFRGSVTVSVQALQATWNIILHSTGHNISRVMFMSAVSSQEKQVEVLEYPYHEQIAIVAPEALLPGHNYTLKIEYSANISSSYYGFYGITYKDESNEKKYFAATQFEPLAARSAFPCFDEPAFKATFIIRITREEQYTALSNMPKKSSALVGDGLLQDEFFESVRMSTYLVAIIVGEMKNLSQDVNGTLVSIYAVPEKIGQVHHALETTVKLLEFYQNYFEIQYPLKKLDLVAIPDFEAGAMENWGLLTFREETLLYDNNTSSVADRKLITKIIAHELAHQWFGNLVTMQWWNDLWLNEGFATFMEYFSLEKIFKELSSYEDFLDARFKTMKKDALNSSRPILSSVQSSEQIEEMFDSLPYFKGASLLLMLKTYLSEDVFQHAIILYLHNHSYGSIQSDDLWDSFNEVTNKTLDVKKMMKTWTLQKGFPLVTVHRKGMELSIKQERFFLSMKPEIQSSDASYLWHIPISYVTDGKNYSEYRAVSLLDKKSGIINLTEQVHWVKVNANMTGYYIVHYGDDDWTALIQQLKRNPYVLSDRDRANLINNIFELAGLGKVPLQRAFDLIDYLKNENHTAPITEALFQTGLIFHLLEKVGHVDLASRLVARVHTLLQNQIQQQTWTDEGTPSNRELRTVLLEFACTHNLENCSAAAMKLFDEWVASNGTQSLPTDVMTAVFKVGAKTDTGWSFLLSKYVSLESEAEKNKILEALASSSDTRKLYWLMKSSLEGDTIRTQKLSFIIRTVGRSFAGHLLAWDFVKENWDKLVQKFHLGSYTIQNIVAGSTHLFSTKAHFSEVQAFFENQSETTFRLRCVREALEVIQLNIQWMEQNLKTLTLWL
Assay: binding capability to angiotensin IV receptor, inhibition of 125I-angiotensin IV binding to guinea pig hippocampus membrane
Settings: 0.2 nM 125I-angiotensin IV, Hartley guinea pig hippocampus crude membrane, 37° C., 90 minutes, pH 7.4
Method: The binding capability to angiotensin IV receptor was measured by using Hartley guinea pig hippocampus referring to the method described by Miller-Wing et al., J. Pharmacol. Exp. Ther., vol. 266, pp.1718 (1993). The Hartley guinea pig hippocampus was homogenized in a 50 mM Tris hydrochloride buffer solution (pH 7.4) containing 1 mM ethylenediamine-N,N,N',N'-tetraacetic acid (EDTA) and 100 μM phenylmethanesulfonyl fluoride (PMSF). After centrifugation at 900× g, the resulting supernatant was further centrifuged at 48,000× g. The precipitate was washed once with the same buffer solution and suspended in 50 mM Tris hydrochloride buffer solution (pH 7.4) containing 150 mM sodium chloride, 1 mM EDTA, 100 μM PMSF and 0.1% bovine serum albumin (BSA) to give a protein concentration of […] as a crude membrane specimen. […] The radioactivity on the filter paper was measured by using a gamma-counter. The non-specific bond was measured in the presence of 1 μM angiotensin IV, and the specific bond was calculated by subtracting the non-specific bond from the total bond.

IC50 [nM] | SMILES
171 | CCCC[C@H](N)CN[C@H](CN[C@H](CCc1ccccc1)CC(C)C)Cc1ccc(O)cc1 [Example 30, (R)-N-[(S)-2-[[(S)-2-aminohexyl]amino]-3-(4-hydroxyphenyl)propyl]-5-methyl-1-phenylhexan-3-amine trihydrochloride]
1.23 | CCCC[C@H](N)CN[C@@H](Cc1ccc(O)cc1)C(=O)N[C@H](/C=C/c1ccc(C(=O)OC)cc1)CC(C)C [Example 11, N'-[(S)-2-aminohexyl]-N-[(S)-(E)-3-(4-methoxycarbonylphenyl)-1-(2-methylpropyl)-2-propenyl]-L-tyrosinamide dihydrochloride]
3.43 | CCCC[C@H](N)CN[C@@H](Cc1ccc(O)cc1)C(=O)N[C@H](CCc1cccc2ccccc12)CC(C)C [Example 16, N'-[(S)-2-aminohexyl]-N-[(R)-3-methyl-1-[2-(1-naphthyl)ethyl]butyl]-L-tyrosinamide dihydrochloride]
24.2 | CCCC[C@H](N)CN[C@H](CN[C@H](/C=C/c1ccccc1)CC(C)C)Cc1ccc(O)cc1 [Example 29, (S)-(E)-N-[(S)-2-[[(S)-2-aminohexyl]amino]-3-(4-hydroxyphenyl)propyl]-5-methyl-1-phenyl-1-hexen-3-amine trihydrochloride]
12.6 | CCC/C=C\[C@@H](NC(=O)[C@H](Cc1ccc(O)cc1)NC[C@@H](N)CCCC)[C@@H](C)CC [Example 3, N'-[(S)-2-aminohexyl]-N-[(S)-(Z)-1-[(S)-1-methylpropyl]-2-hexenyl]-L-tyrosinamide dihydrochloride]
5.46 | CCCC[C@H](N)CN[C@@H](Cc1ccc(O)cc1)C(=O)N[C@H](/C=C\c1ccc(Cl)cc1)CC(C)C [Example 20, N'-[(S)-2-aminohexyl]-N-[(S)-(Z)-3-(4-chlorophenyl)-1-(2-methylpropyl)-2-propenyl]-L-tyrosinamide dihydrochloride]
